According to paper PMC5814754, “Quantitative, Wide-Spectrum Kinase Profiling in Live Cells for Assessing the Effect of Cellular ATP on Target Engagement” (Cell Chemical Biology, 2018):
Blank lines part the entries; values can stand above or below the compound they belong to.

Experiments:
Experiment in all cases: Apparent affinity (EC50) of energy transfer probes by titration onto live HEK293 cells expressing kinase/Nluc fusions (Table S1)
Type in all cases: binding
[1] = biological target: full-length kinase/Nluc fusion proteins (Homo sapiens, UniProt Q9Y463); details: DYRK1B, Nluc N; read-out: Probe EC50
[2] = biological target: full-length kinase/Nluc fusion proteins (Homo sapiens, UniProt P51817); details: PRKX, Nluc C; read-out: Probe EC50
Sequence of full-length kinase/Nluc fusion proteins (Homo sapiens, UniProt P51817) (P51817 whole entry, the tested form may be a part): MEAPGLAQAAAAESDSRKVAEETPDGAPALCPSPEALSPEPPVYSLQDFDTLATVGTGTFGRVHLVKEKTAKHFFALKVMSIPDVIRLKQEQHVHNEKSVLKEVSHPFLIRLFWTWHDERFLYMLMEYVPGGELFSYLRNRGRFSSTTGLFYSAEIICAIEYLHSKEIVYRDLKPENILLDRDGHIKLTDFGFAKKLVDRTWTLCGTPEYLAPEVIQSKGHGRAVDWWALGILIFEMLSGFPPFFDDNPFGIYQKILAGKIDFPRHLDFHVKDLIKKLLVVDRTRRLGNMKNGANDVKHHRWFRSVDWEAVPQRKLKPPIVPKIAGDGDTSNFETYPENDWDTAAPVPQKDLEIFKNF

[3] = biological target: full-length kinase/Nluc fusion proteins (Homo sapiens, UniProt Q9NRM7); details: LATS2, Nluc C; read-out: Probe EC50
[4] = biological target: full-length kinase/Nluc fusion proteins (Homo sapiens, UniProt Q9NYY3); details: PLK2, Nluc N; read-out: Probe EC50
[5] = biological target: full-length kinase/Nluc fusion proteins (Homo sapiens, UniProt P54646); details: PRKAA2, Nluc N; read-out: Probe EC50
[6] = biological target: full-length kinase/Nluc fusion proteins (Homo sapiens, UniProt P78368); details: CSNK1G2, Nluc N; read-out: Probe EC50
[7] = biological target: full-length kinase/Nluc fusion proteins (Homo sapiens, UniProt O43283); details: MAP3K13, Nluc N; read-out: Probe EC50
Sequence of full-length kinase/Nluc fusion proteins (Homo sapiens, UniProt O43283) (O43283 whole entry, the tested form may be a part): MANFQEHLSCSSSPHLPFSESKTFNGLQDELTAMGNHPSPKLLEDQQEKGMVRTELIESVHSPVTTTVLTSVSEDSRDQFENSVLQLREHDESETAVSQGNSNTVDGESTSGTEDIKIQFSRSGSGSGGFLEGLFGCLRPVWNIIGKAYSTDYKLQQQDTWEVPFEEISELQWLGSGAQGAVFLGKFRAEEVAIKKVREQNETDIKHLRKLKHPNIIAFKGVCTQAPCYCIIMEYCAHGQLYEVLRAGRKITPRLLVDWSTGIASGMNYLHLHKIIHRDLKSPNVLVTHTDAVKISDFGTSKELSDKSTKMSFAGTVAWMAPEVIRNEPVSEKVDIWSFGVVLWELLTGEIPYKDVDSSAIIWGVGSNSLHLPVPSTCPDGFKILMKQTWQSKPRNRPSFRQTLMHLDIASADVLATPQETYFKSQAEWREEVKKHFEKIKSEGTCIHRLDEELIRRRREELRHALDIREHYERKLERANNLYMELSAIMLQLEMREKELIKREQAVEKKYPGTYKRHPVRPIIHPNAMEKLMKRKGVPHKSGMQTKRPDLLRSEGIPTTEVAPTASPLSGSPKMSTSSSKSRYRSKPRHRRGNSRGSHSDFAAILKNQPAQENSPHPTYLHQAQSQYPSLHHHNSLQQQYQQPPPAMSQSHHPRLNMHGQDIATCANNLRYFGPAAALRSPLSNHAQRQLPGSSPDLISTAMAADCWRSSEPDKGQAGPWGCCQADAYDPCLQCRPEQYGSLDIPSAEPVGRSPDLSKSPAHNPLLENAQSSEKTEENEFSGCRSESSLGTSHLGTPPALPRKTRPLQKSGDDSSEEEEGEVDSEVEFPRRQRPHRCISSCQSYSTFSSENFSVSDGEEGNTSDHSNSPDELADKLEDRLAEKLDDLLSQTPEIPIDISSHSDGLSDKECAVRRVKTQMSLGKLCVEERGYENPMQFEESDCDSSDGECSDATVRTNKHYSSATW

[8] = biological target: full-length kinase/Nluc fusion proteins (Homo sapiens, UniProt Q08881); details: ITK, Nluc N; read-out: Probe EC50
[9] = biological target: full-length kinase/Nluc fusion proteins (Homo sapiens, UniProt P11362); details: FGFR1, Nluc C; read-out: Probe EC50
[10] = biological target: full-length kinase/Nluc fusion proteins (Homo sapiens, UniProt P50613); details: CDK7, Nluc C; read-out: Probe EC50
[11] = biological target: full-length kinase/Nluc fusion proteins (Homo sapiens, UniProt Q9UF33); details: EPHA6, Nluc C; read-out: Probe EC50
Sequence of full-length kinase/Nluc fusion proteins (Homo sapiens, UniProt Q9UF33) (Q9UF33 23-1036): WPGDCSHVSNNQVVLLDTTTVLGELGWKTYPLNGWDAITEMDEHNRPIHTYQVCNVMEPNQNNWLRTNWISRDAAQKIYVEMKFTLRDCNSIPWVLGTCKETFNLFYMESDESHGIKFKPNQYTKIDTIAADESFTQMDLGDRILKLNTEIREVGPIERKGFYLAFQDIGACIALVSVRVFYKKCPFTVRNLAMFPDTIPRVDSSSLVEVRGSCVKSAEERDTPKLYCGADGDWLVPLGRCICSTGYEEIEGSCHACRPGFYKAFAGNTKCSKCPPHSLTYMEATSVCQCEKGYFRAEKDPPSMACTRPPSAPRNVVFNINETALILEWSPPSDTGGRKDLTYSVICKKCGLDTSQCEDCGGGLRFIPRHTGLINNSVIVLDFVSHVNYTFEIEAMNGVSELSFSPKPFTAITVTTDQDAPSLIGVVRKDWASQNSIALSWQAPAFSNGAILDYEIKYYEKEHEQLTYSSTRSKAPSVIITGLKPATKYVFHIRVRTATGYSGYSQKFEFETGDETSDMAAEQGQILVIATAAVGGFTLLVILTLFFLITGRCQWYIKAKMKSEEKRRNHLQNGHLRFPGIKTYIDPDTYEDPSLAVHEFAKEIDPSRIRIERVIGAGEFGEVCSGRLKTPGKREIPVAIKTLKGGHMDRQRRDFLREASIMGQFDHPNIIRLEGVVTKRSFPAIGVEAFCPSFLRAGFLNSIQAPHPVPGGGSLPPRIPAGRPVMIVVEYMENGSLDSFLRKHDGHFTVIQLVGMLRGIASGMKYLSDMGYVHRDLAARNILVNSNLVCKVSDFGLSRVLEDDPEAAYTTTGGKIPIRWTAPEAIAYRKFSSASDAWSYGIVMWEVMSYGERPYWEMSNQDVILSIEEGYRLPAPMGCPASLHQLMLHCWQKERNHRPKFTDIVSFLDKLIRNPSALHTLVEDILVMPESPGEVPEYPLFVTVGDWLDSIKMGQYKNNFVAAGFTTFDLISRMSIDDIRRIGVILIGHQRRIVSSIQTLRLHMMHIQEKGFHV

[12] = biological target: full-length kinase/Nluc fusion proteins (Homo sapiens, UniProt O75385); details: ULK1 (NP_003556), Nluc orientation N; read-out: Probe EC50
[13] = biological target: full-length kinase/Nluc fusion proteins (Homo sapiens, UniProt P36896); details: ACVR1B, Nluc C; read-out: Probe EC50
[14] = biological target: full-length kinase/Nluc fusion proteins (Homo sapiens, UniProt Q96GD4); details: AURKB, Nluc C; read-out: Probe EC50
[15] = biological target: full-length kinase/Nluc fusion proteins (Homo sapiens, UniProt O14936); details: CASK, Nluc N; read-out: Probe EC50
[16] = biological target: full-length kinase/Nluc fusion proteins (Homo sapiens, UniProt P08581); details: MET, Nluc C; read-out: Probe EC50
[17] = biological target: full-length kinase/Nluc fusion proteins (Homo sapiens, UniProt Q16816); details: PHKG1, Nluc N; read-out: Probe EC50
Sequence of full-length kinase/Nluc fusion proteins (Homo sapiens, UniProt Q16816) (Q16816 whole entry, the tested form may be a part): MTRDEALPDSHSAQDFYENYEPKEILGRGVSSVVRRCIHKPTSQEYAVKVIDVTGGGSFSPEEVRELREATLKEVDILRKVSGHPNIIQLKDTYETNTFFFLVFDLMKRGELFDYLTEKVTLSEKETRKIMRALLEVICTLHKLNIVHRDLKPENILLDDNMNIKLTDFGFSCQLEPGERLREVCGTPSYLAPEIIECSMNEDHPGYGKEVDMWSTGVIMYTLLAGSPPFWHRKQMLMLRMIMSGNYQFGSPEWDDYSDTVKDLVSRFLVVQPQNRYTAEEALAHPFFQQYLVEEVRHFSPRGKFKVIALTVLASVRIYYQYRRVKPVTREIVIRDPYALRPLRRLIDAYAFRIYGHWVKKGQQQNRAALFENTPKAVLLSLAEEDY

[18] = biological target: full-length kinase/Nluc fusion proteins (Homo sapiens, UniProt O14965); details: AURKA, Nluc C; read-out: Probe EC50
Sequence of full-length kinase/Nluc fusion proteins (Homo sapiens, UniProt O14965) (O14965 whole entry, the tested form may be a part): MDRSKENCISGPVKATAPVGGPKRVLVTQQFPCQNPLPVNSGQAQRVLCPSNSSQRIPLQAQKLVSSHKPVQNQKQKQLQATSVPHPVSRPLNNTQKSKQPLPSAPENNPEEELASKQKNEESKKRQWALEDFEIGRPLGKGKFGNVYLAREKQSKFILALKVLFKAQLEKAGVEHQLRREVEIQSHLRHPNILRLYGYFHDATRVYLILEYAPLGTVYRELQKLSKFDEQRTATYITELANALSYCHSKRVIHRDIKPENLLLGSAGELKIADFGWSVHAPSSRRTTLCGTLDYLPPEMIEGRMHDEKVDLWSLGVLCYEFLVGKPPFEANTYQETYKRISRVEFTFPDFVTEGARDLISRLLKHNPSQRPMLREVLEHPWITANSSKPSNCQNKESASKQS

[19] = biological target: full-length kinase/Nluc fusion proteins (Homo sapiens, UniProt O96013); details: PAK4, Nluc C; read-out: Probe EC50
[20] = biological target: full-length kinase/Nluc fusion proteins (Homo sapiens, UniProt P22455); details: FGFR4, Nluc C; read-out: Probe EC50
[21] = biological target: full-length kinase/Nluc fusion proteins (Homo sapiens, UniProt Q13627); details: DYRK1A, Nluc N; read-out: Probe EC50
[22] = biological target: full-length kinase/Nluc fusion proteins (Homo sapiens, UniProt Q8TD19); details: NEK9, Nluc N; read-out: Probe EC50
[23] = biological target: full-length kinase/Nluc fusion proteins (Homo sapiens, UniProt P80192); details: MAP3K9, Nluc N; read-out: Probe EC50
[24] = biological target: full-length kinase/Nluc fusion proteins (Homo sapiens, UniProt Q13131); details: PRKAA1, Nluc N; read-out: Probe EC50
[25] = biological target: full-length kinase/Nluc fusion proteins (Homo sapiens, UniProt P54756); details: EPHA5, Nluc C; read-out: Probe EC50
[26] = biological target: full-length kinase/Nluc fusion proteins (Homo sapiens, UniProt P54764); details: EPHA4, Nluc C; read-out: Probe EC50
[27] = biological target: full-length kinase/Nluc fusion proteins (Homo sapiens, UniProt P12931); details: SRC (NP_005408), Nluc orientation C; read-out: Probe EC50
[28] = biological target: full-length kinase/Nluc fusion proteins (Homo sapiens, UniProt P42681); details: TXK (NP_003319), Nluc orientation C; read-out: Probe EC50
[29] = biological target: full-length kinase/Nluc fusion proteins (Homo sapiens, UniProt P09619); details: PDGFRB, Nluc C; read-out: Probe EC50
Sequence of full-length kinase/Nluc fusion proteins (Homo sapiens, UniProt P09619) (P09619 33-1106): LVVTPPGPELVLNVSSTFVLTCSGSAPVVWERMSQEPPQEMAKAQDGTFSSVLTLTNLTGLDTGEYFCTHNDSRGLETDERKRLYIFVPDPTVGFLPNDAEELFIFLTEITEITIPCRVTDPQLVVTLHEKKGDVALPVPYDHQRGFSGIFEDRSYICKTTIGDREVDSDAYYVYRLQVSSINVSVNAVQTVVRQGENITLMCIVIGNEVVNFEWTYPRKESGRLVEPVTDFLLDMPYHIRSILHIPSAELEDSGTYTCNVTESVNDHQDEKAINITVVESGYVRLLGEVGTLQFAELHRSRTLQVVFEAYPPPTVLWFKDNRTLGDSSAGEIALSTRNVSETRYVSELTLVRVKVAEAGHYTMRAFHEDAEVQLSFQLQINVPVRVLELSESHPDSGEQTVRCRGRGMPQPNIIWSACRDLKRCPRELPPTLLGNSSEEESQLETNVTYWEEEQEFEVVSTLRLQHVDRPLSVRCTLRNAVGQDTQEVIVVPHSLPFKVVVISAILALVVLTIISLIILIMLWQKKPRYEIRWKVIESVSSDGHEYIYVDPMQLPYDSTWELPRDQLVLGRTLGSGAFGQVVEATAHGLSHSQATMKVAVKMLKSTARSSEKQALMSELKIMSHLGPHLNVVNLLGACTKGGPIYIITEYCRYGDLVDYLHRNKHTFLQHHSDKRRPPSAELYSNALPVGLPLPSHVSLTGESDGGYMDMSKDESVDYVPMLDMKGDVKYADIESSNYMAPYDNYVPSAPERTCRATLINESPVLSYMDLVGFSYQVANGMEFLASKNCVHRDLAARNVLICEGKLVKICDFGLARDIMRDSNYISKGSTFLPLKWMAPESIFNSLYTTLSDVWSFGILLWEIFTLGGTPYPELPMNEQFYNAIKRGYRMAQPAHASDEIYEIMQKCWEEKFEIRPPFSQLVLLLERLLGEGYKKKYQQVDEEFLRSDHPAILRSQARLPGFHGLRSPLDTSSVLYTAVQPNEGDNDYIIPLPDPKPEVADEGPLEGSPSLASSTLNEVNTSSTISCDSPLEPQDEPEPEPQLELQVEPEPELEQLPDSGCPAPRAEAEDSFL

[30] = biological target: full-length kinase/Nluc fusion proteins (Homo sapiens, UniProt P07947); details: YES1 (NP_005424), Nluc orientation C; read-out: Probe EC50
[31] = biological target: full-length kinase/Nluc fusion proteins (Homo sapiens, UniProt O43353); details: RIPK2 (NP_003812), Nluc orientation N; read-out: Probe EC50
Sequence of full-length kinase/Nluc fusion proteins (Homo sapiens, UniProt O43353) (O43353 whole entry, the tested form may be a part): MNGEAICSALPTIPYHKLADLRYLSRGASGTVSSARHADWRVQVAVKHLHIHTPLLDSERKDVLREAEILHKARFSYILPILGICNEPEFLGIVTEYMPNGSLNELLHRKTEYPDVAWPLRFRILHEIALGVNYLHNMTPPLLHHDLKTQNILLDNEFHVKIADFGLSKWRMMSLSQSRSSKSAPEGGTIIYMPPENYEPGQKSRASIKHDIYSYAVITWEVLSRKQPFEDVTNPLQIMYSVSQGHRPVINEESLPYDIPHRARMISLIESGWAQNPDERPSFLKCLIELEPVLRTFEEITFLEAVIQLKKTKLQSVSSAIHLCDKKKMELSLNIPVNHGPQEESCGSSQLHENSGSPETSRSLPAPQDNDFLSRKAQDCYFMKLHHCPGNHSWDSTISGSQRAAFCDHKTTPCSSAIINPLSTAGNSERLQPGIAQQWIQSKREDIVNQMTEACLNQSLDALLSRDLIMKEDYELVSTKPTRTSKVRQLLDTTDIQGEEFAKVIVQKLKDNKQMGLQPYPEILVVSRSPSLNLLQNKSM

[32] = biological target: full-length kinase/Nluc fusion proteins (Homo sapiens, UniProt O14976); details: GAK, Nluc N; read-out: Probe EC50

EC50 [1]: > 1000 nM | EC50 [2]: > 1000 nM | EC50 [3]: 300 nM | EC50 [4]: > 1000 nM | EC50 [5]: > 1000 nM | EC50 [6]: > 1000 nM | EC50 [7]: 200 nM | EC50 [8]: 40 nM | EC50 [9]: 600 nM | EC50 [10]: 300 nM | EC50 [11]: > 1000 nM | EC50 [12]: > 1000 nM | EC50 [13]: > 1000 nM | EC50 [14]: 10 nM | EC50 [15]: > 1000 nM | EC50 [16]: 400 nM | EC50 [17]: 400 nM | EC50 [18]: 40 nM | EC50 [19]: > 1000 nM | EC50 [20]: > 1000 nM | EC50 [21]: > 1000 nM | EC50 [23]: > 1000 nM | EC50 [24]: 300 nM
SMILES: CNC(=O)c1ccccc1Nc1nc(Nc2ccc(N3CCN(C(=O)CCOCCOCCOCCOCCNC(=O)CCc4ccc5n4[B-](F)(F)[N+]4=C(c6ccc[nH]6)C=CC4=C5)CC3)cc2)ncc1Cl [Energy Transfer Probe 5, 2-((2-((4-(4-(1-amino-3,6,9,12-tetraoxapentadecan-15-oyl)piperazin-1-yl)phenyl)amino)-5-chloropyrimidin-4-yl)amino)-N-methylbenzamide-NanoBRET 590]
EC50 [22]: > 1000 nM

EC50 [25]: 30 nM | EC50 [26]: 40 nM | EC50 [27]: 300 nM | EC50 [28]: 100 nM | EC50 [29]: 200 nM | EC50 [30]: 600 nM | EC50 [31]: 200 nM | EC50 [32]: 500 nM
SMILES: Cc1nc(Nc2ncc(C(=O)Nc3c(C)cccc3Cl)s2)cc(N2CCN(CCOCCNC(=O)CCc3ccc4n3[B-](F)(F)[N+]3=C(c5ccc[nH]5)C=CC3=C4)CC2)n1 [Energy Transfer Probe 6, 2-((6-(4-(2-(2-aminoethoxy)ethyl)piperazin-1-yl)-2-methylpyrimidin-4-yl)amino)-N-(2-chloro-6-methylphenyl)thiazole-5-carboxamide-NanoBRET 590]
